Results as given in patent US8293705B2, “HCV protease inhibitors and uses thereof” (Avila Therapeutics, Inc., priority 2007, dated 2012).

How the values were obtained:
HCV NS3•4A protease WT = HCV NS3•4A protease WT (Hepatitis C virus genotype 1b, UniProt Q9WMX2); assay: cell-based
[1] = tested on: HCV RNA replicon in cell line ET (luc-ubi-neo/ET), human Huh7 hepatoma; assay: HCV RNA replicon assay, Example 14 Method A; assay type: cell-based; settings: Hepatitis C virus, Huh-7, assay of Example 14, 72 hr; for IC50: read-out: Inhibition, Replicon (IC50); for IC90: read-out: Inhibition, Replicon, IC90 value
Protocol: The compounds were assayed to evaluate the antiviral activity and cytotoxicity of compounds in vitro using HCV RNA replicons. This assay used the cell line ET (luc-ubi-neo/ET), which is a human Huh7 hepatoma cell line that contains an HCV RNA replicon with a stable luciferase (Luc) reporter and three cell culture-adaptive mutations. […]
The ET cell line was grown in Dulbecco's modified essential media (DMEM), 10% fetal bovine serum (FBS), 1% penicillin-streptomycin (pen-strep), 1% glutamine, 250 μg/mL G418 in a 5% CO2 incubator at 37° C. All cell culture reagents were obtained from Mediatech (Manassas, Va.). Cells were trypsinized (1% trypsin:EDTA) and plated out at 5×10^3 cells/well in white 96-well assay plates (Costar) dedicated to cell number (cytotoxicity) or antiviral activity assessments. Drugs were added at six 3-fold concentrations each and the assay was run in DMEM, 5% FBS, 1% pen-strep, 1% glutamine. Human interferon alpha-2b (PBL Biolabs, New Brunswick, N.J.) was included in each run as a positive control compound. Cells were processed 72 hr post drug addition when the cells are still subconfluent. Antiviral activity was measured by analyzing replicon-derived luciferase activity using the Steady-Glo Luciferase Assay System (Promega, Madison, Wis.) according to manufacturer's instruction. The number of cells in each well was determined by CytoTox-1 reagent (Promega). Compound profile was derived by calculating applicable EC50 (effective concentration inhibiting virus replication by 50%), EC90 (effective concentration inhibiting virus replication by 90%), IC50 (concentration decreasing cell viability by 50%) and SI50 (selective index: […]) values.

[2] = target: T1, HCV NS3/4A 1b protease A156T (Hepatitis C virus genotype 1b, UniProt Q9WMX2, A1182T); assay: HCV protease FRET assay (IC50), Example 15; assay type: biochemical
T1 construct: 10× stocks of NS3/4A protease enzyme from Bioenza (Mountain View, Calif.); purchased Bioenza (Mountain View, Calif.)
Protocol: (§1) The following protocol was used to generate IC50 values as depicted for compound 239 in Table 4, above. The protocol is a modified FRET-based assay (v—02) from In Vitro Resistance Studies of HCV Serine Protease Inhibitors, 2004, JBC, vol. 279, No. 17, pp 17508-17514.
(§2) 10× stocks of NS3/4A protease enzyme from Bioenza (Mountain View, Calif.) and 1.13× 5-FAM/QXL™520 FRET peptide substrate from Anaspec (San Jose, Calif.) were prepared in 50 mM HEPES, pH 7.8, 100 mM NaCl, 5 mM DTT and 20% glycerol. 5 μL of each enzyme were pre-incubated in a Corning (#3573) 384-well, black, non-treated microtiter plate (Corning, N.Y.) for 30 min at 25° C. with a 0.5 μL volume of 50% DMSO and serially diluted compounds prepared in 50% DMSO. Protease reactions were started with the addition of 45 μL of the FRET substrate and monitored for 120 minutes at λex487/λem514 through Quad^4 monochromoters in a Synergy^4 plate reader from BioTek (Winooski, Vt.). At the conclusion of each assay, progress curves from each well were examined for linear reaction kinetics and fit statistics (R^2, absolute sum of squares). Initial velocity (0 minutes to 30+ minutes) from each reaction was determined from the slope of a plot of relative fluorescence units vs time (minutes) and then plotted against inhibitor concentration to estimate IC50 from log [Inhibitor] vs Response, Variable Slope model in GraphPad Prism from GraphPad Software (San Diego, Calif.).
(§3) The compound numbers correspond to the compound numbers in Table 3. […] ;

[3] = target: T2, HCV NS3/4A 1b protease D168A (Hepatitis C virus genotype 1b, UniProt Q9WMX2, D1194A); assay: HCV protease FRET assay (IC50), Example 15; assay type: biochemical
T2 construct: 10× stocks of NS3/4A protease enzyme from Bioenza (Mountain View, Calif.); purchased Bioenza (Mountain View, Calif.)
Protocol: as §1, §2, §3

[4] = target: T3, HCV NS3/4A 1b protease wild type (Hepatitis C virus genotype 1b, UniProt Q9WMX2); assay: HCV protease FRET assay (IC50), Example 15; assay type: biochemical
T3 construct: 10× stocks of NS3/4A protease enzyme from Bioenza (Mountain View, Calif.); purchased Bioenza (Mountain View, Calif.)
Protocol: as §1, §2, §3

HCV NS3/4A wild type = target: T4, HCV NS3/4A wild type (Hepatitis C virus genotype 1b, UniProt Q9WMX2); assay: Mass spectrometric analysis of covalent modification (MALDI-TOF); assay type: binding; settings: 10× excess of test compound to protein
T4 construct: HCV NS3/4A wild type (wt) was incubated for 1 hr at a 10× fold access of test compound to protein; purchased Bioenza, Calif
Method in brief: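 HCV NS3/4A protease (100 pmol wild type; C159S mutant as comparison) incubated with 10-fold molar excess of compound for 1 and 3 h. Samples acidified in 0.1% TFA, C4 ZipTip-desalted, analysed by MALDI-TOF intact-mass measurement in linear mode, sinapinic acid matrix.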

[5] = target: T1, HCV NS3/4A 1b protease A156T; assay: HCV protease FRET assay (IC50_APP), Example 16; assay type: biochemical
[6] = target: T2, HCV NS3/4A 1b protease D168A; assay: HCV protease FRET assay (IC50_APP), Example 16; assay type: biochemical
[7] = target: T3, HCV NS3/4A 1b protease wild type; assay: HCV protease FRET assay (IC50_APP), Example 16; assay type: biochemical
[8] = target: T5, HCV NS3/4A mutant R155K protease (Hepatitis C virus genotype 1b, UniProt Q9WMX2, R1181K); assay: Mass spectrometric analysis of covalent modification (MALDI-TOF); assay type: binding; settings: 3 hours, 10× excess of compound
T5 construct: mass spectroscopic analysis of HCV NS3/4A mutant R155K protease in the presence of test compound I-11
Protocol: (§4) As depicted in FIGS. 4, 5, 6, and 7, mass spectrometric analysis of HCV mutants in the presence of compound I-11 was performed. […] 2 ul aliquots of the samples were diluted with 10 ul of 0.1% TFA prior to micro C4 ZipTipping directly onto the MALDI target using Sinapinic acid as the desorption matrix (10 mg/ml in 0.1% TFA:Acetonitrile 50:50). For intact protein mass measurement the instrument was set in linear mode using a pulsed extraction setting of 24,500 and apomyoglobin as the standard to calibrate the instrument.

[9] = target: T6, HCV NS3/4A mutant A156T protease (Hepatitis C virus genotype 1b, UniProt Q9WMX2, A1182T); assay: as above; assay type: binding; settings: 3 hours, 10× excess of compound
T6 construct: mass spectroscopic analysis of HCV NS3/4A mutant A156T protease in the presence of test compound I-11
Protocol: as §4

[10] = target: T7, HCV NS3/4A 1b protease R155K (Hepatitis C virus genotype 1b, UniProt Q9WMX2, R1181K); assay: HCV protease FRET assay (IC50_APP), Example 16; assay type: biochemical; settings: reaction started immediately after enzyme addition, read-out: Inhibition (apparent IC50, IC50_APP), HCV R155K
T7 construct: 10× stocks of NS3/4A protease enzyme from Bioenza (Mountain View, Calif.); purchased Bioenza (Mountain View, Calif.)

[11] = tested on: HCV RNA replicon in cell line ET (luc-ubi-neo/ET), human Huh7 hepatoma; assay: Replicon luciferase assay, Example 26; assay type: cell-based; settings: Hepatitis C virus, Huh-7, assay of Example 26, 72 hr, read-out: Inhibition, Replicon, EC50 value
Method in brief: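 Huh7-derived ET cells carrying a luciferase-reporter HCV replicon, 5×10^3 cells/well, exposed 72 h to six 3-fold compound concentrations in DMEM with 5% FBS. Replicon luciferase gives EC50/EC90; Cell Titer Blue cell number gives cytotoxic IC50, with SI50 as their ratio. Interferon alpha-2b served as positive control.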

[12] = target: T8, HCV NS3/4A 1b protease C159S (Hepatitis C virus genotype 1b, UniProt Q9WMX2, C1185S); assay: HCV protease FRET assay (IC50_APP), Example 16; assay type: biochemical; settings: reaction started immediately after enzyme addition, read-out: Inhibition (apparent IC50, IC50_APP), HCV C159S
T8 construct: 10× stocks of NS3/4A protease enzyme from Bioenza (Mountain View, Calif.); purchased Bioenza (Mountain View, Calif.)

[13] = Inhibition (IC50), HCV D168A, FRET, 30 min pre-incubation at 25° C.

Compound: C=CC(=O)NC[C@H](NC(=O)OC(C)(C)C)C(=O)N1C[C@H](OC(=O)N2Cc3cccc(F)c3C2)C[C@H]1C(=O)N[C@]1(C(=O)NS(=O)(=O)C2CC2)C[C@H]1C=C [Compound I-1, (3R,5S)-1-((S)-3-acrylamido-2-(tert-butoxycarbonylamino)propanoyl)-5-((1R,2S)-1-(cyclopropylsulfonylcarbamoyl)-2-vinylcyclopropylcarbamoyl)pyrrolidin-3-yl 4-fluoroisoindoline-2-carboxylate]
- IC50 (HCV NS3•4A protease WT): 0.66 nM
- IC50 [1]: 10 to 100 nM
- IC90 [1]: 10 to 100 nM
- IC50 ([2]; Comparative IC50 Values, A156T, biochemical assay, applicant's compound): 3 nM
- IC50 ([2]; Inhibition (IC50), HCV A156T, FRET, 30 min pre-incubation at 25° C.): < 10 nM
- IC50 ([3]; Comparative IC50 Values, D168A, biochemical assay, applicant's compound): 8 nM
- IC50 [3, 13]: < 10 nM
- IC50 [4]: < 10 nM
- Covalent modification of HCV NS3/4A wild type (HCV NS3/4A wild type; MALDI-TOF): reacted significantly
- Mass increase of new protein species vs protein with no compound (HCV NS3/4A wild type; 1 hr): approximately 751 Da
- IC50 [5]: 10 to 100 nM
- IC50 [6]: 100 to 1000 nM
- IC50 [7]: < 10 nM

Compound: C=CC(=O)N(C)C[C@H](NC(=O)OC(C)(C)C)C(=O)N1C[C@H](OC(=O)N2Cc3cccc(F)c3C2)C[C@H]1C(=O)N[C@]1(C(=O)NS(=O)(=O)C2CC2)C[C@H]1C=C [Compound I-11, (3R,5S)-1-((S)-2-(tert-butoxycarbonylamino)-3-(N-methylacrylamido)propanoyl)-5-((1R,2S)-1-(cyclopropylsulfonylcarbamoyl)-2-vinylcyclopropylcarbamoyl)pyrrolidin-3-yl 4-fluoroisoindoline-2-carboxylate]
- Conversion of HCV (R155K) mutant to compound adduct [8]: good conversion
- Conversion of HCV (A156T) mutant to compound adduct [9]: complete conversion
- IC50 [1]: < 10 nM
- IC90 [1]: 10 to 100 nM
- IC50 [3, 13]: 10 to 100 nM
- IC50 [4]: < 10 nM
- IC50 [10]: 10 to 100 nM
- IC50 [5]: < 10 nM
- IC50 [6]: 10 to 100 nM
- IC50 [7]: < 10 nM

Compound: C=C[C@@H]1C[C@]1(NC(=O)[C@@H]1CC(OC(=O)N2Cc3cccc(F)c3C2)CN1C(=O)[C@H](CC(=O)C=C(C)C)NC(=O)OC(C)(C)C)C(=O)NS(=O)(=O)C1CC1 (some centres unmarked) [Compound I-32]
- EC50 [11]: < 10 nM
- IC50 [10]: 10 to 100 nM
- IC50 [12]: < 10 nM
- IC50 [5]: < 10 nM
- IC50 [6]: 10 to 100 nM
- IC50 [7]: < 10 nM
